ChEMBL document CHEMBL3352079, “Pyrimidine-based tricyclic molecules as potent and orally efficacious inhibitors of wee1 kinase” (ACS Med Chem Lett, 2015)
The source made the active and inactive calls. No cut-off for these calls is given here.

Assays:
Wee1-like protein kinase [1] = biological target: T1, Wee1-like protein kinase (Homo sapiens, UniProt P30291); assay: Inhibition of GST-tagged human Wee1
NCI-H1299 [2] = assay: Cytotoxicity against human NCI-H1299 cells assessed as cell viability after 72 hrs by CellTiterGlo assay; assay type: functional, cell-based; details: NCI-H1299, 72 h
Wee1-like protein kinase [3] = biological target: T1, Wee1-like protein kinase; assay: Inhibition of human Weel1 in human NCI-H1299 cells assessed as phosphorylation of Cdk1 after overnight incubation by ELISA PD assay; assay type: cell-based
NCI-H1299 [4] = assay: Antitumor activity against human NCI-H1299 cells xenografted in mouse assessed as tumor growth inhibition at 50 mg/kg, po qd from day 28 to 41 after tumor inoculation in presence of 10 mg/kg irinotecan; assay type: functional
[5] = Clearance in CD-1 mouse at 3 mg/kg, iv; assay type: ADME, organism-based; parameters: dose 3 mg/kg, route intravenous; details: in vivo
NCI-H1299 [6] = assay: Antitumor activity against human NCI-H1299 cells xenografted in mouse assessed as tumor growth inhibition at 50 mg/kg, po qd from day 28 to 41 after tumor inoculation; assay type: functional; details: NCI-H1299, 672 h, read-out: TGI
NCI-H1299 [7] = assay: Antitumor activity against human NCI-H1299 cells xenografted in mouse assessed as depletion of pY15 bands at 100 mg/kg, po after 6 hrs; assay type: functional, organism-based; parameters: dose 100 mg/kg
Mus musculus = assay: In vivo inhibition of Wee1 in human NCI-H1299 cells xenografted in mouse assessed as pY15 CDK expression at 100 mg/kg, po qd after 6 to 10 hrs; assay type: functional, organism-based; parameters: dose 100 mg/kg
[8] = Oral bioavailability in CD-1 mouse at 10 mg/kg; assay type: ADME, organism-based; details: in vivo
[9] = Drug uptake in human NCI-H1299 cells xenografted in mouse assessed in tumor at 100 mg/kg, po qd after 10 hrs; assay type: ADME, organism-based, Neoplasm; parameters: dose 100 mg/kg, route oral; details: read-out: Drug uptake
NCI-H1299 [10] = assay: Antitumor activity against human NCI-H1299 cells xenografted in mouse assessed as depletion of pY15 bands at 100 mg/kg, po after 10 hrs; assay type: functional, organism-based; parameters: dose 100 mg/kg
[11] = AUC in CD-1 mouse at 10 mg/kg, po; assay type: ADME, organism-based; parameters: dose 10 mg/kg, route oral; details: plasma
[12] = Plasma concentration in human NCI-H1299 cells xenografted in mouse at 100 mg/kg, po qd after 6 hrs; assay type: ADME, organism-based; parameters: dose 100 mg/kg, route oral
[13] = Plasma concentration in human NCI-H1299 cells xenografted in mouse at 100 mg/kg, po qd after 10 hrs; assay type: ADME, organism-based; parameters: dose 100 mg/kg, route oral
[14] = Half life in CD-1 mouse at 3 mg/kg, iv; assay type: ADME, organism-based; parameters: dose 3 mg/kg, route intravenous; details: in vivo
NCI-H1299 [15] = assay: Antitumor activity against human NCI-H1299 cells xenografted in mouse assessed as tumor growth delay at 50 mg/kg, po qd from day 28 to 41 after tumor inoculation in presence of 10 mg/kg irinotecan; assay type: functional
[16] = Drug uptake in human NCI-H1299 cells xenografted in mouse assessed in tumor at 100 mg/kg, po qd after 6 hrs; assay type: ADME, organism-based, Neoplasm; parameters: dose 100 mg/kg, route oral; details: read-out: Drug uptake
NCI-H1299 [17] = assay: Antitumor activity against human NCI-H1299 cells xenografted in mouse assessed as tumor growth inhibition at 10 mg/kg, po qd from day 28 to 41 after tumor inoculation; assay type: functional; details: NCI-H1299, 672 h, read-out: TGI

T1 sequence (P30291 whole entry): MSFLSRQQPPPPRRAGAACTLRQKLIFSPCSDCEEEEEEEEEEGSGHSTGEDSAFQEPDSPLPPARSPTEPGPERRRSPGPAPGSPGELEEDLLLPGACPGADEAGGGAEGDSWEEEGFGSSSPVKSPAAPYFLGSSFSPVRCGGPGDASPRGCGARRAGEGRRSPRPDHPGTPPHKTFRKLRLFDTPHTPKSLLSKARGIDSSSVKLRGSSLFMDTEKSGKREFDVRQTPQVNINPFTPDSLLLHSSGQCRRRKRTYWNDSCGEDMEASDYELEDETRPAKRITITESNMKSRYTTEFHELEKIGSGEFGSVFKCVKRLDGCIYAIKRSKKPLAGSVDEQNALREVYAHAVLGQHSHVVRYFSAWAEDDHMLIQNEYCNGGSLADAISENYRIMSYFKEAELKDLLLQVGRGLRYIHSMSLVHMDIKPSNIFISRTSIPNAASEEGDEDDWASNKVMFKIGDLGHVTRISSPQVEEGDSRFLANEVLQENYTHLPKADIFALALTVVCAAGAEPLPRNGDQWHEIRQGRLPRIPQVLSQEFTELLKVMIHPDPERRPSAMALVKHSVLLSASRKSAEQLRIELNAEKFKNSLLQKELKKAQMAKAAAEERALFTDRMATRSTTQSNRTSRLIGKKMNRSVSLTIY

SMILES | Ki (Wee1-like protein kinase [1]) | EC50 (NCI-H1299 [2]) | EC50 (Wee1-like protein kinase [3]) | clearance [5] | bioavailability [8] | AUC [11] | half-life [14] | other results
CN1CCC(c2ccc(Nc3ncc4c(=O)n(-c5ccccc5Cl)c5nccn5c4n3)cc2)CC1 | 8.3 nM | 9600 nM | 3100 nM |  |  |  |  | 
CN1Cc2cc(Nc3ncc4c(=O)n(-c5c(F)cccc5Cl)c5nccn5c4n3)ccc2C(C)(C)C1 | < 1 nM | 310 nM | 60 nM | 9.17 mL/min/kg | 94% | 24 µM·h | 2.8 h | TGI (NCI-H1299 [4]): 83%; inhibition in vivo at 50 mg/kg (NCI-H1299 [6]): 43%; inhibition (NCI-H1299 [7]): Active; inhibition (Mus musculus): Active; concentration at 10 h [9]: 53.4 µM; inhibition (NCI-H1299 [10]): Active; concentration at 6 h [12]: 20 µM; concentration at 10 h [13]: 13.7 µM; Activity (NCI-H1299 [15]): 25%; concentration at 6 h [16]: 47.1 µM
CN1CCN(c2ccc(Nc3ncc4c(=O)n(-c5c(Cl)cccc5Cl)c5nccn5c4n3)cc2)CC1 | < 1 nM | 190 nM | 87 nM | 33.3 mL/min/kg | 55% | 6.5 µM·h | 1.7 h | 
CN1Cc2cc(Nc3ncc4c(=O)n(-c5ccccc5Cl)c5nccn5c4n3)ccc2C2(CC2)C1 | 1.2 nM | 690 nM | 100 nM | 25 mL/min/kg | 70% | 9.8 µM·h | 2.3 h | 
CN1CCCc2ccc(Nc3ncc4c(=O)n(-c5ccccc5Cl)c5nccn5c4n3)cc21 | 8.6 nM | > 10000 nM | 2300 nM |  |  |  |  | 
CC(=O)N1CCN(c2ccc(Nc3ncc4c(=O)n(-c5ccccc5Cl)c5nccn5c4n3)cc2)CC1 | 6.6 nM | 3300 nM | 1100 nM |  |  |  |  | 
O=c1c2cnc(Nc3ccc4c(c3)CCCC4)nc2n2ccnc2n1-c1ccccc1Cl | 26 nM | 7300 nM | 6000 nM |  |  |  |  | 
CN1CCN(c2ccc(Nc3ncc4c(=O)n(-c5ccccc5Cl)c5nccn5c4n3)cc2)CC1 | 2.3 nM | 1000 nM | 370 nM | 30 mL/min/kg | 72% | 8.4 µM·h | 1.9 h | 
CN1CCCc2cc(Nc3ncc4c(=O)n(-c5ccccc5Cl)c5nccn5c4n3)ccc21 | 7.4 nM | 9300 nM | 2700 nM |  |  |  |  | 
CN1CCN(c2ccc(Nc3ncc4c(=O)n(-c5c(F)cccc5Cl)c5nccn5c4n3)cc2)CC1 |  | 450 nM |  |  |  |  |  | 
CN1Cc2cc(Nc3ncc4c(=O)n(-c5c(Cl)cccc5Cl)c5nccn5c4n3)ccc2C2(CC2)C1 | < 1 nM | 220 nM | 27 nM |  |  |  |  | 
CCc1c2c(nc3ccc(OC(=O)N4CCC(N5CCCCC5)CC4)cc13)-c1cc3c(c(=O)n1C2)COC(=O)[C@]3(O)CC [IRINOTECAN] |  |  |  |  |  |  |  | TGI (NCI-H1299 [4]): 83%; inhibition in vivo at 10 mg/kg (NCI-H1299 [17]): 67%
O=c1c2cnc(Nc3ccc(N4CCCCC4)cc3)nc2n2ccnc2n1-c1ccccc1Cl | 5.5 nM | 9800 nM | 3800 nM |  |  |  |  | 
CN1CCN(c2cccc(Nc3ncc4c(=O)n(-c5ccccc5Cl)c5nccn5c4n3)c2)CC1 | 6.2 nM | 6500 nM | 1500 nM |  |  |  |  | 
CC(=O)N1Cc2cc(Nc3ncc4c(=O)n(-c5ccccc5Cl)c5nccn5c4n3)ccc2C2(CC2)C1 | 5.4 nM | 2000 nM | 620 nM |  |  |  |  | 
O=c1c2cnc(Nc3ccccc3)nc2n2ccnc2n1-c1ccccc1Cl | 21 nM | 5900 nM | 6800 nM |  |  |  |  | 
CN1Cc2cc(Nc3ncc4c(=O)n(-c5c(F)cccc5Cl)c5nccn5c4n3)ccc2C2(CC2)C1 | < 1 nM | 210 nM | 29 nM | 18.3 mL/min/kg | 68% | 12 µM·h | 2.6 h | 
O=c1c2cnc(Nc3ccc(C4CCCCC4)cc3)nc2n2ccnc2n1-c1ccccc1Cl | 87 nM | > 10000 nM | 10000 nM |  |  |  |  | 
CN1CCc2ccc(Nc3ncc4c(=O)n(-c5ccccc5Cl)c5nccn5c4n3)cc2C1 | 1.6 nM | 770 nM | 220 nM | 36.7 mL/min/kg | 52% | 5.2 µM·h | 1.5 h | 
CN1Cc2cc(Nc3ncc4c(=O)n(-c5c(Cl)cccc5Cl)c5nccn5c4n3)ccc2C(C)(C)C1 | < 1 nM | 230 nM | < 13 nM | 16.2 mL/min/kg | 49% | 9.8 µM·h | 3.9 h | 
CN1CCN(c2ccccc2Nc2ncc3c(=O)n(-c4ccccc4Cl)c4nccn4c3n2)CC1 | > 3140 nM |  |  |  |  |  |  | 
O=c1c2cnc(NC3CCCCC3)nc2n2ccnc2n1-c1ccccc1Cl | > 3140 nM |  |  |  |  |  |  | 
CN1Cc2cc(Nc3ncc4c(=O)n(-c5ccccc5Cl)c5nccn5c4n3)ccc2C(C)(C)C1 | < 1 nM | 550 nM | 98 nM | 23.3 mL/min/kg | 80% | 12.3 µM·h | 2.8 h | 
